Marks after values point to notes of the source that are not given here.
Experiments:
rabbit eye (conjunctiva) = experiment: Severe eye irritation test using rabbits; assay type: in vivo; conditions: 1%, instillation six times per day at 30 min intervals for two days
[1] = WO 99/16770; cited from earlier work
allergic rhinitis = experiment: Prophylactic effect on allergic rhinitis, oral administration; assay type: in vivo, rat; conditions: 15 min before antigen administration
Description: The prophylactic effect of compound B on allergic rihinitis in the same manner as in Test Example 4-1, except that compound B was suspended in hydroxypropylmethylcellulose and the suspension was orally administered. The medicament was administered 15 min before the administration of the antigin (start of allergy).

## COc1cc2[nH]c(=O)c3nn(C(OC(=O)OC(C)C)C(C)C)nc3c(=O)c2cc1OC (stereo not shown) [Compound B, 2-(1-Isopropoxycarbonyloxy-2-methylpropyl)-7,8-dimethoxy-4(5H),10-dioxo-2H-1,2,3-triazolo[4,5-c][1]benzazepine]
Rabbit eye (conjunctiva)
  eye irritation: only slight reddening of the conjunctiva was observed
[1]
  improvement of absorption upon oral administration as compared with compound A: by a factor of seven
Allergic rhinitis; 1 mg/kg (200 μg/rat)
  Increase in dye leakage amount Inhibition ratio: 46.3% **
Allergic rhinitis; 5 mg/kg (1000 μg/rat)
  Increase in dye leakage amount Inhibition ratio: 81.9% **

— patent US7910575B2, “Prophylactic or therapeutic agents for allergic ophthalmic diseases or allergic nasal diseases, comprising tricyclic triazolobenzazepine derivative” (Meiji Seika Kaisha, Ltd., priority 2006, dated 2011)
